# Measurements published in patent publication US20230091225A1, “Bifunctional chimeric heterocyclic compounds for targeted degradation of androgen receptors and use thereof” (HINOVA PHARMACEUTICALS INC., priority 2019, published 2023).
# Target: T1, androgen receptor (AR) (Homo sapiens, UniProt P10275)
# T1 sequence (P10275 1-920): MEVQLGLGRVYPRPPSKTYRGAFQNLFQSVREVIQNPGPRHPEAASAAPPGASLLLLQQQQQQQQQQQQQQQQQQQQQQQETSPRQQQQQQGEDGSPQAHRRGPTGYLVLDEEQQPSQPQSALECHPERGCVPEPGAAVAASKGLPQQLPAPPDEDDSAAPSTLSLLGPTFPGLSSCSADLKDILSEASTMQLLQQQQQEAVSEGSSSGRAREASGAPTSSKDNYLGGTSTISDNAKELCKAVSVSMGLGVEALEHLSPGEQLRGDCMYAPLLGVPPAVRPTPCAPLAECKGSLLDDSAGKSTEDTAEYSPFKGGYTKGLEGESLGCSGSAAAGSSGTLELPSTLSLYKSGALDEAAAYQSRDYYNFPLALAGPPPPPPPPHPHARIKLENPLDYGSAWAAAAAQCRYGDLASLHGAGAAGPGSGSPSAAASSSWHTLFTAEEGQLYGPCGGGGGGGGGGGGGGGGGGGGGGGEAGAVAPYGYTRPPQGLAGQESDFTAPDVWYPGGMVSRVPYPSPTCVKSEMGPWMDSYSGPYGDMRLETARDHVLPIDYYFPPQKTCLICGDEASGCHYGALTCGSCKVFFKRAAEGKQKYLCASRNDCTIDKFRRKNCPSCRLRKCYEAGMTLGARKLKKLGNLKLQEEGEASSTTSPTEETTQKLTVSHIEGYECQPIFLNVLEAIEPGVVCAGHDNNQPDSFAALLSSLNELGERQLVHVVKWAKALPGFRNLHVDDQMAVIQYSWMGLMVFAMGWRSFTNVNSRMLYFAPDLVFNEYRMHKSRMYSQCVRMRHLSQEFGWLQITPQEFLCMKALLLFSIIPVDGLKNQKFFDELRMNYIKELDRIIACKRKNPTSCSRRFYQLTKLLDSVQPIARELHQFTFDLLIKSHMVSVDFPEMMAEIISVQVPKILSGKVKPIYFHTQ
# Assay: Degradation of androgen receptor (AR) protein in VCaP cells by Western blot
# Assay type: cell-based
# Details: percentage of degraded AR at 100 nM, VCaP cells, 16 h
# Summary of the method: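 AR and β-actin levels were read by Western blot with ECL detection, loading 30 μg lysate protein per well. Before lysis, VCaP cells seeded at 5×10^5/well and grown overnight were exposed to compound for 16 h, two wells per concentration, keeping DMSO at 0.1%.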
inhibition at 0.1 µM [%],Structure (SMILES),% degradation
,"CC1(C)C(NC(=O)c2ccc(N3C[C@@H]4C(CN5CCN(c6cc7c(cc6F)C(=O)N(C6CCC(=O)NC6=O)C7=O)CC5)[C@@H]4C3)nn2)C(C)(C)C1Oc1ccc(C#N)c(Cl)c1 (stereo partly drawn) [Compound 181, N-((1r,3R)-3-(3-chloro-4-cyanophenoxy)-2,2,4,4-tetramethylcyclobutyl)-6-((1R,5S,6S)-6-((4-(2-(2,6-dioxopiperidin-3-yl)-6-fluoro-1,3-dioxoisoindolin-5-yl)piperazin-1-yl)methyl)-3-azabicyclo[3.1.0]hexan-3-yl)pyridazine-3-formamide]",B (79%-50%)
50 to 79,"CC1(C)[C@H](NC(=O)c2cnc(N3C[C@@H]4[C@@H](CN5CCN(c6cc7c(cc6F)C(=O)N(C6CCC(=O)NC6=O)C7=O)CC5)[C@@H]4C3)cn2)C(C)(C)[C@H]1Oc1ccc(C#N)c(Cl)c1 (stereo partly drawn) [Compound 182, N-((1r,3R)-3-(3-chloro-4-cyanophenoxy)-2,2,4,4-tetramethylcyclobutyl)-5-((1R,5S,6S)-6-((4-(2-(2,6-dioxopiperidin-3-yl)-6-fluoro-1,3-dioxoisoindolin-5-yl)piperazin-1-yl)methyl)-3-azabicyclo[3.1.0]hexan-3-yl)pyrazine-2-carboxamide]",
> 80,"N#Cc1ccc(O[C@H]2CC[C@H](NC(=O)c3ccc(N4CCC5(CN(CC6CCN(c7cc8c(cc7F)C(=O)N(C7CCC(=O)NC7=O)C8=O)CC6)C5)C4)nn3)CC2)cc1Cl (stereo partly shown) [Compound 183, N-((1r,4r)-4-(3-chloro-4-cyanophenoxy)cyclohexyl)-6-(2-((1-(2-(2,6-dioxopiperidin-3-yl)-6-fluoro-1,3-dioxoisoindolin-5-yl)piperidine-4-yl)methyl)-2,6-diazaspiro[3.4]octan-6-yl)pyridazine-3-formamide]",
> 80,"N#Cc1ccc(O[C@H]2CC[C@H](NC(=O)c3ccc(N4CCC(CN5CCC6(C5)CN(c5cc7c(cc5F)C(=O)N(C5CCC(=O)NC5=O)C7=O)C6)CC4)nn3)CC2)cc1Cl (stereo partly shown) [Compound 184, N-((1r,4r)-4-(3-chloro-4-cyanophenoxy)cyclohexyl)-6-(4-((2-(2-(2,6-dioxopiperidin-3-yl)-6-fluoro-1,3-dioxoisoindolin-5-yl)-2,6-diazaspiro[3.4]octan-6-yl)methyl)piperidin-1-yl)pyridazine-3-formamide]",
> 80,"N#Cc1ccc(O[C@H]2CC[C@H](NC(=O)c3ccc(N4CCC(CN5CCC6(C5)CN(c5ccc7c(c5)C(=O)N(C5CCC(=O)NC5=O)C7=O)C6)CC4)nn3)CC2)cc1Cl (stereo partly shown) [Compound 185, N-((1r,4r)-4-(3-chloro-4-cyanophenoxy)cyclohexyl)-6-(4-((2-(2-(2,6-dioxopiperidin-3-yl)-1,3-dioxoisoindolin-5-yl)-2,6-diazaspiro[3.4]octan-6-yl)methyl)piperidin-1-yl)pyridazine-3-formamide]",
,"N#Cc1ccc(OC2CCC(NC(=O)c3cnc(N4C[C@@H]5CN(C6CCN(c7cc8c(cc7F)C(=O)N(C7CCC(=O)NC7=O)C8=O)CC6)C[C@@H]5C4)nc3)CC2)cc1Cl (stereo partly drawn) [Compound 220, N-((1s,4S)-4-(3-chloro-4-cyanophenoxy)cyclohexyl)-2-((3aR,6aS)-5-(1-(2-(2,6-dioxopiperidin-3-yl)-6-fluoro-1,3-dioxoisoindolin-5-yl)piperidine-4-yl)hexahydropyrrolo[3,4-c]pyrrol-2(1H)-yl)pyrimidine-5-carboxamide]",D (<25%)
25 to 49,"CC1(C)[C@H](NC(=O)c2ccc(N3CCC(N4C[C@H]5CN(c6cc7c(cc6F)C(=O)N(C6CCC(=O)NC6=O)C7=O)C[C@H]5C4)CC3)nn2)C(C)(C)[C@H]1Oc1ccc(C#N)c(Cl)c1 (stereo partly drawn) [Compound 221, N-((1r,3R)-3-(3-chloro-4-cyanophenoxy)-2,2,4,4-tetramethylcyclobutyl)-6-(4-((3aR,6aS)-5-(2-(2,6-dioxopiperidin-3-yl)-6-fluoro-1,3-dioxoisoindolin-5-yl)hexahydropyrrolo[3,4-c]pyrrol-2(1H)-yl)piperidin-1-yl)pyridazine-3-carboxamide]",
> 80,"N#Cc1ccc(O[C@H]2CC[C@H](NC(=O)c3ccc(N4C[C@H]5C[C@@H](CN6CC7CN(c8cc9c(cc8F)C(=O)N(C8CCC(=O)NC8=O)C9=O)CC7C6)C[C@H]5C4)nn3)CC2)cc1Cl (stereo partly drawn) [Compound 222, N-((1r,4r)-4-(3-chloro-4-cyanophenoxy)cyclohexyl)-6-((3aR,5R, 6aS)-5-((5-(2-(2,6-dioxopiperidin-3-yl)-6-fluoro-1,3-dioxoisoindolin-5-yl)hexahydropyrrolo[3,4-c]pyrrol-2(1H)-yl)methyl)hexahydrocyclopenta[c]pyrrole-2(1H)-yl)pyridazine-3-formamide]",
> 80,"N#Cc1ccc(O[C@H]2CC[C@H](NC(=O)c3ccc(N4CC(N5CC6CN(c7cc8c(cc7F)C(=O)N(C7CCC(=O)NC7=O)C8=O)CC6C5)C4)nn3)CC2)cc1Cl (stereo partly shown) [Compound 223, N-((1r,4r)-4-(3-chloro-4-cyanophenoxy)cyclohexyl)-6-(3-(5-(2-(2,6-dioxopiperidin-3-yl)-6-fluoro-1,3-dioxoisoindolin-5-yl)hexahydropyrrolo[3,4-c]pyrrol-2(1H)-yl)azitidin-1-yl)pyridazine-3-carboxamide]",
50 to 79,"N#Cc1ccc(O[C@H]2CC[C@H](NC(=O)c3ccc(N4C[C@H]5C[C@@H](CN6CCN(c7cc8c(cc7F)C(=O)N(C7CCC(=O)NC7=O)C8=O)CC6)C[C@H]5C4)nn3)CC2)cc1Cl (stereo partly drawn) [Compound 224, N-((1r,4r)-4-(3-chloro-4-cyanophenoxy)cyclohexyl)-6-((3aR,5R,6aS)-5-((4-(2-(2,6-dioxopiperidin-3-yl)-6-fluoro-1,3-dioxoisoindolin-5-yl)piperazin-1-yl)methyl)hexahydrocyclopenta[c]pyrrole-2(1H)-yl)pyridazine-3-formamide]",
50 to 79,"N#Cc1ccc(O[C@H]2CC[C@H](NC(=O)c3cnc(N4CC(N5CC6CN(c7cc8c(cc7F)C(=O)N(C7CCC(=O)NC7=O)C8=O)CC6C5)C4)cn3)CC2)cc1Cl (stereo partly shown) [Compound 225, N-((1r,4r)-4-(3-chloro-4-cyanophenoxy)cyclohexyl)-5-(3-(5-(2-(2,6-dioxopiperidin-3-yl)-6-fluoro-1,3-dioxoisoindolin-5-yl)hexahydropyrrolo[3,4-c]pyrrol-2(1H)-yl)azitidin-1-yl)pyrazine-2-carboxamide]",
50 to 79,N#Cc1ccc(O[C@H]2CC[C@H](NC(=O)c3ccc(N4CCN(CC5C[C@@H]6CN(c7cc8c(cc7F)C(=O)N(C7CCC(=O)NC7=O)C8=O)C[C@@H]6C5)CC4)nn3)CC2)cc1Cl (stereo partly shown) [Compound 226],
> 80,"N#Cc1ccc(O[C@H]2CC[C@H](NC(=O)c3cnc(N4CCC(N5CC6(CCN(c7cc8c(cc7F)C(=O)N(C7CCC(=O)NC7=O)C8=O)CC6)C5)CC4)cn3)CC2)cc1Cl (stereo partly shown) [Compound 228, N-((1r,4r)-4-(3-chloro-4-cyanophenoxy)cyclohexyl)-5-(4-(7-(2-(2,6-dioxopiperidin-3-yl)-6-fluoro-1,3-dioxoisoindolin-5-yl)-2,7-diazaspiro[3.5]nonan-2-yl)piperidin-1-yl)pyrazine-2-carboxamide]",
> 80,"N#Cc1ccc(O[C@H]2CC[C@H](NC(=O)c3cnc(N4CCC(N5CC6(CCN(c7ccc8c(c7)C(=O)N(C7CCC(=O)NC7=O)C8=O)CC6)C5)CC4)cn3)CC2)cc1Cl (stereo partly shown) [Compound 229, N-((1r,4r)-4-(3-chloro-4-cyanophenoxy)cyclohexyl)-5-(4-(7-(2-(2,6-dioxopiperidin-3-yl)-1,3-dioxoisoindolin-5-yl)-2,7-diazaspiro[3.5]nonan-2-yl)piperidin-1-yl)pyrazine-2-carboxamide]",
,"N#Cc1ccc(OC2CCC(NC(=O)c3ccc(N4CCC(CN5CCC6(CC5)CN(c5ccc7c(c5)C(=O)N(C5CCC(=O)NC5=O)C7=O)C6)CC4)nn3)CC2)cc1Cl (stereo not shown) [Compound 230, N-((1r,4r)-4-(3-chloro-4-cyanophenoxy)cyclohexyl)-6-(4-((2-(2-(2,6-dioxopiperidin-3-yl)-1,3-dioxoisoindolin-5-yl)-2,7-diazaspiro[3.5]nonan-7-yl)methyl)piperidin-1-yl)pyridazine-3-carboxamide]",A (>80%)

Structure (SMILES),inhibition at 0.1 µM [%],% degradation
"N#Cc1ccc(Oc2ccc(NC(=O)c3ccc(N4CCC(CN5CCN(c6cc7c(cc6F)C(=O)N(C6CCC(=O)NC6=O)C7=O)CC5)CC4)nn3)cc2)cc1Cl (stereo not shown) [Compound 227, N-(4-(3-chloro-4-cyanophenoxy)phenyl)-6-(4-((4-(2-(2,6-dioxopiperidin-3-yl)-6-fluoro-1,3-dioxoisoindolin-5-yl)piperazin-1-yl)methyl)piperidin-1-yl)pyridazine-3-formamide]",25 to 49,
